We go through seven molecules from ChEMBL document CHEMBL5303573, “Mapping human microbiome drug metabolism by gut bacteria and their genes” (Nature, 2019).

A short description of data set [1]: The drug is tested on Odoribacter splanchnicus strain: fecal isolate for biotransformation. The drug concentrations were measured before and after a 12-h incubation by liquid-chromatography-coupled mass spectrometry (LC–MS). To be noted: 2 µM.
Data set [2] can be described thus: The drug is tested on Enterobacter cancerogenus strain: ATCC35316 for biotransformation. The drug concentrations were measured before and after a 12-h incubation by liquid-chromatography-coupled mass spectrometry (LC–MS). To be noted: 2 µM.
Data set [3] can be described thus: The drug is tested on Bacteroides uniformis strain: ATCC8492 for biotransformation. The drug concentrations were measured before and after a 12-h incubation by liquid-chromatography-coupled mass spectrometry (LC–MS). To be noted: 2 µM.
Data set [4] is described as follows: The drug is tested on Clostridium symbiosum strain: ATCC14940 for biotransformation. The drug concentrations were measured before and after a 12-h incubation by liquid-chromatography-coupled mass spectrometry (LC–MS). To be noted: 2 µM.
Data set [5] can be described thus: The drug is tested on Bacteroides sp. WH2 strain: WH2 for biotransformation. The drug concentrations were measured before and after a 12-h incubation by liquid-chromatography-coupled mass spectrometry (LC–MS). As to conditions: bacteroides sp. wh2, 12 h, 2 µM.
Data set [6] in a line: The drug is tested on Clostridium asparagiforme strain: DSM15981 for biotransformation. The drug concentrations were measured before and after a 12-h incubation by liquid-chromatography-coupled mass spectrometry (LC–MS). It is filed as ADME. The arrangement: dose 2 uM, timepoint 0 vs 12 hours. As to conditions: enterocloster asparagiformis, 2 µM.
A short description of data set [7]: The drug is tested on Eubacterium rectale strain: ATCC33656 for biotransformation. The drug concentrations were measured before and after a 12-h incubation by liquid-chromatography-coupled mass spectrometry (LC–MS). To be noted: agathobacter rectalis, 2 µM.
A short description of data set [8]: The drug is tested on Bacteroides coprophilus strain: DSM18228 for biotransformation. The drug concentrations were measured before and after a 12-h incubation by liquid-chromatography-coupled mass spectrometry (LC–MS). To be noted: 2 µM.
For data set [9] the following is noted: bacteroides fragilis, 12 h, 2 µM.
Description: The drug is tested on Bacteroides fragilis strain: NCTC 9343 for biotransformation. The drug concentrations were measured before and after a 12-h incubation by liquid-chromatography-coupled mass spectrometry (LC–MS)
Data set [10] in a line: The drug is tested on Bacteroides fragilis strain: HMW615 for biotransformation. The drug concentrations were measured before and after a 12-h incubation by liquid-chromatography-coupled mass spectrometry (LC–MS). As to conditions: 2 µM.
Data set [11] is described as follows: The drug is tested on Edwardsiella tarda strain: ATCC23685 for biotransformation. The drug concentrations were measured before and after a 12-h incubation by liquid-chromatography-coupled mass spectrometry (LC–MS). As to conditions: 2 µM.
The conditions of data set [12]: bacteroides eggerthii, 12 h, 2 µM.
Description: The drug is tested on Bacteroides eggerthii strain: DSM20697 for biotransformation. The drug concentrations were measured before and after a 12-h incubation by liquid-chromatography-coupled mass spectrometry (LC–MS)
The conditions of data set [13]: parabacteroides distasonis, 12 h, 2 µM.
Description: The drug is tested on Parabacteroides distasonis strain: ATCC8503 for biotransformation. The drug concentrations were measured before and after a 12-h incubation by liquid-chromatography-coupled mass spectrometry (LC–MS)
Data set [14] can be described thus: The drug is tested on Anaerococcus hydrogenalis strain: DSM7454 for biotransformation. The drug concentrations were measured before and after a 12-h incubation by liquid-chromatography-coupled mass spectrometry (LC–MS). To be noted: 2 µM.
Data set [15] can be described thus: The drug is tested on Bifidobacterium breve strain: DSM20213 for biotransformation. The drug concentrations were measured before and after a 12-h incubation by liquid-chromatography-coupled mass spectrometry (LC–MS). As to conditions: 2 µM.
For data set [16] the following is noted: limosilactobacillus reuteri cf48-3a, 12 h, 2 µM.
Description: The drug is tested on Lactobacillus reuteri CF48-3A strain: BEI HM-102 for biotransformation. The drug concentrations were measured before and after a 12-h incubation by liquid-chromatography-coupled mass spectrometry (LC–MS)
Data set [17] can be described thus: The drug is tested on Eubacterium hallii strain: DSM3353 for biotransformation. The drug concentrations were measured before and after a 12-h incubation by liquid-chromatography-coupled mass spectrometry (LC–MS). As to conditions: anaerobutyricum hallii, 2 µM.
Data set [18] can be described thus: The drug is tested on Enterococcus faecalis strain: V583 for biotransformation. The drug concentrations were measured before and after a 12-h incubation by liquid-chromatography-coupled mass spectrometry (LC–MS). As to conditions: 2 µM.
Data set [19] in a line: The drug is tested on Bacteroides dorei strain: DSM17855 for biotransformation. The drug concentrations were measured before and after a 12-h incubation by liquid-chromatography-coupled mass spectrometry (LC–MS). To be noted: phocaeicola dorei, 2 µM.
Data set [20] is described as follows: The drug is tested on Escherichia coli strain: BW25113 for biotransformation. The drug concentrations were measured before and after a 12-h incubation by liquid-chromatography-coupled mass spectrometry (LC–MS). To be noted: 2 µM.

On to `O=C(O)CCC(=O)O.O=C(O[C@H]1CN2CCC1CC2)N1CCc2ccccc2[C@@H]1c1ccccc1` [SOLIFENACIN SUCCINATE], for which the “Bacterial Biotransformation” value in data set [1], in data set [2], in [3], in data set [4], in data set [5] and in [6] was “Compound NOT metabolized” throughout. The “Bacterial Biotransformation” value in data set [7], in data set [8], in data set [9], in [10], in data set [11] and in [12] was “Compound NOT metabolized” throughout. For the same molecule, the “Bacterial Biotransformation” value in data set [13], in [14], in data set [15], in data set [16], in data set [17] and in [18] was “Compound NOT metabolized” in each case.

Consider `C[C@]12CCC(=O)C=C1[C@@H]1C[C@@H]1[C@H]1[C@@H]3[C@@H]4C[C@@H]4[C@@]4(CCC(=O)O4)[C@@]3(C)CC[C@@H]12` [DROSPIRENONE], for which the “Bacterial Biotransformation” value is “Compound metabolized” in data set [1]; “Compound metabolized” in data set [3]; “Compound NOT metabolized” in data set [4]; “Compound NOT metabolized” in data set [5]; “Compound NOT metabolized” in data set [6]; “Compound NOT metabolized” in [7]. For the same molecule, the “Bacterial Biotransformation” value in data set [9] is listed as “Compound metabolized”; in data set [19], “Compound metabolized”; in data set [10] it was “Compound metabolized”; in data set [11] it was “Compound NOT metabolized”; in data set [12], “Compound NOT metabolized”; in [13] it was “Compound NOT metabolized”. For the same molecule, the “Bacterial Biotransformation” value in data set [14], in data set [16], in data set [17], in [20] and in data set [18] was “Compound NOT metabolized” in each case.

Turning to `CS(=O)(=O)O.OC(CCN1CCCCC1)(c1ccccc1)c1ccccc1` [PRIDINOL METHANESULFONATE], the “Bacterial Biotransformation” value in [1], in data set [4], in data set [5], in [6], in [7] and in [8] was “Compound NOT metabolized” in each case. For the same molecule, the “Bacterial Biotransformation” value in [9], in data set [19], in data set [10], in data set [11], in [12] and in data set [14] was “Compound NOT metabolized” in each case. Further, the “Bacterial Biotransformation” value in [15], in data set [16], in data set [17] and in [20] was “Compound NOT metabolized” in each case.

As to `C#C[C@]1(OC(C)=O)CC[C@H]2[C@@H]3CCC4=C[C@@H](OC(C)=O)CC[C@@H]4[C@H]3CC[C@@]21C` [ETHYNODIOL DIACETATE], the “Bacterial Biotransformation” value in data set [1], in data set [2], in data set [5], in [6], in [7] and in data set [8] was “Compound NOT metabolized” throughout. In addition, the “Bacterial Biotransformation” value in data set [9], in data set [19], in data set [10], in data set [11], in data set [12] and in [13] was “Compound NOT metabolized” in each case. The “Bacterial Biotransformation” value in data set [14], in data set [16] and in data set [18] was “Compound NOT metabolized” in each case.

In the case of `Nc1c2c(nc3ccccc13)CCCC2` [TACRINE], the “Bacterial Biotransformation” value in data set [2], in data set [3], in data set [4], in data set [5], in data set [6] and in data set [7] was “Compound NOT metabolized” in each case. Besides, the “Bacterial Biotransformation” value in [19], in data set [10], in data set [11], in data set [12], in data set [13] and in data set [14] was “Compound NOT metabolized” each time. Besides, the “Bacterial Biotransformation” value in data set [15], in data set [16], in data set [17] and in [18] was “Compound NOT metabolized” each time.

As to `O=c1[nH]c2ccccc2n1C1CCN(CCCC(c2ccc(F)cc2)c2ccc(F)cc2)CC1` [PIMOZIDE], the “Bacterial Biotransformation” value in data set [1], in data set [2], in data set [3], in [4], in data set [5] and in data set [6] was “Compound NOT metabolized” throughout. For the same molecule, the “Bacterial Biotransformation” value in [7], in data set [8], in data set [9], in [19], in data set [10] and in [11] was “Compound NOT metabolized” in each case. Further, the “Bacterial Biotransformation” value in data set [12] is “Compound NOT metabolized”; in data set [13] it was “Compound metabolized”; in data set [14] it was “Compound NOT metabolized”; in data set [15], “Compound NOT metabolized”; in [16] it was “Compound NOT metabolized”; in [17], “Compound NOT metabolized”. For the same molecule, the “Bacterial Biotransformation” value in data set [18] is listed as “Compound NOT metabolized”.

Turning to `COc1ccccc1OCC(O)CN1CCN(CC(=O)Nc2c(C)cccc2C)CC1` (stereo not given) [RANOLAZINE], the “Bacterial Biotransformation” value in data set [1], in data set [2], in data set [3], in data set [4], in data set [5] and in data set [6] was “Compound NOT metabolized” in each case. Also, the “Bacterial Biotransformation” value in [7], in data set [8], in data set [9], in [19], in data set [10] and in data set [11] was “Compound NOT metabolized” in each case. Further, the “Bacterial Biotransformation” value in data set [12], in data set [13], in data set [14], in [15], in [16] and in data set [17] was “Compound NOT metabolized” in each case. In addition, the “Bacterial Biotransformation” value in [18] was “Compound NOT metabolized”.
